We go through 22 compounds from patent publication US20260297080A1, “BICYCLIC COMPOUNDS AS CDK INHIBITORS” (BeOne Medicines I GmbH, priority 2022, published 2026).

Experiment [1] addresses CDK2/Cyclin E1 (Homo sapiens, UniProt P24941). Briefly: CDK2/Cyclin E1 Biochemical Assay (TR-FRET), 0.060 mM ATP. The settings on record: 0.15 μM Rb (Ser780)-biotin substrate, pH7.0, 60 min preincubation, 120 min reaction, room temperature. In a few lines:
(§1)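 Percent inhibition was derived from the 665 nm/620 nm TR-FRET ratio after a 120-minute room-temperature reaction on 0.15 μM Rb (Ser780)-biotin, preceded by 60-minute enzyme–compound preincubation. IC50 came from four-parameter logistic fitting.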

Experiment [2] deals with CDK1/Cyclin B1 (Homo sapiens, UniProt P06493). Briefly: CDK1/Cyclin B1 Biochemical Assay (TR-FRET), 0.015 mM ATP. The settings on record: 0.15 μM Rb (Ser780)-biotin substrate, pH7.0, 60 min preincubation, 120 min reaction, room temperature. The essentials:
as §1

Chain of CDK1/Cyclin B1 (P06493 whole entry): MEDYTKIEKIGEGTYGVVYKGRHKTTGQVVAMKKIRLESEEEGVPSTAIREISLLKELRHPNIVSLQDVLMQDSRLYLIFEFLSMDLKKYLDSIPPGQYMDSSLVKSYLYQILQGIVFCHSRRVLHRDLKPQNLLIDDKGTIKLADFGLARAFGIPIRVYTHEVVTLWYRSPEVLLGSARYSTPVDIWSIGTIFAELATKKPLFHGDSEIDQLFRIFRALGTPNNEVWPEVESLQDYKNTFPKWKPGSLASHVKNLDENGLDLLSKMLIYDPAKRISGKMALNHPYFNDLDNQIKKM
Chain of CDK1/Cyclin B1 (P14635 whole entry partner): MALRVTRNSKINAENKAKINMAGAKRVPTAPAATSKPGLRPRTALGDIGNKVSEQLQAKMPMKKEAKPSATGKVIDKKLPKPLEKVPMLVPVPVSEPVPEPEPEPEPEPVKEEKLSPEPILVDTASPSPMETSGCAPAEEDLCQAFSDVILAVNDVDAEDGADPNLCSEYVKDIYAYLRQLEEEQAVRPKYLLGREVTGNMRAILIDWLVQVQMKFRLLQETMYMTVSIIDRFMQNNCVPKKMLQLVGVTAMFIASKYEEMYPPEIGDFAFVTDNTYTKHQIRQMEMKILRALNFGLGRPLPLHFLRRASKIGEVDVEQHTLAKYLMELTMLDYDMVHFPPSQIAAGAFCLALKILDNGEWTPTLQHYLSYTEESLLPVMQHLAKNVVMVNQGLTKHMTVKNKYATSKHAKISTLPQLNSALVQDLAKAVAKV

Regarding `[2H]C([2H])([2H])N1Cc2c(ccc(Nc3cc([C@@H]4CC[C@H](OC(=O)NC(C)C)C4)[nH]n3)c2F)S1(=O)=O` (single isomer, unassigned) [Example 129a, cis-3-(3-((4-fluoro-2-(methyl-d3)-1,1-dioxido-2,3-dihydrobenzo[d]isothiazol-5-yl)amino)-1H-pyrazol-5-yl)cyclopentyl isopropylcarbamate], the 50% inhibitory concentration (IC50) in experiment [1] worked out at 4.7 nM; in experiment [2], 652 nM.

With `CNC(=O)O[C@H]1CC[C@@H](c2cc(Nc3ccc4c(c3F)CNS4(=O)=O)n[nH]2)C1` (relative stereo) [Example 153, cis-3-(3-((4-fluoro-1,1-dioxido-2,3-dihydrobenzo[d]isothiazol-5-yl)amino)-1H-pyrazol-5-yl)cyclopentyl methylcarbamate], the IC50 in experiment [1] stood at 91 nM; in experiment [2], 1120 nM.

As to `CC1(NC(=O)O[C@@H]2CC[C@H](c3cc(Nc4ccc5c(c4F)CS(=O)(=O)N5)n[nH]3)C2)CC1` (single isomer, unassigned) [Example 388a], the IC50 in experiment [1] is 1.2 nM; in experiment [2], 36 nM.

As for `C[C@@H](CO)NC(=O)O[C@H]1CC[C@@H](c2cc(Nc3ccc4c(c3F)CN(C3CC3)S4(=O)=O)n[nH]2)C1` (relative stereo) [Example 120, cis-3-(3-((2-cyclopropyl-4-fluoro-1,1-dioxido-2,3-dihydrobenzo[d]isothiazol-5-yl)amino)-1H-pyrazol-5-yl)cyclopentyl((S)-1-hydroxypropan-2-yl)carbamate], the IC50 was found to be 32 nM in experiment [1] and 773 nM in experiment [2].

With `CC(C)NC(=O)O[C@H]1CC[C@@H](c2cc(Nc3ccc4c(c3F)CN(C3CCN(Cc5ccccc5)C3)S4(=O)=O)n[nH]2)C1` (relative stereo) [Example 87, cis-3-(3-((2-(1-benzylpyrrolidin-3-yl)-4-fluoro-1,1-dioxido-2,3-dihydrobenzo[d]isothiazol-5-yl)amino)-1H-pyrazol-5-yl)cyclopentyl isopropylcarbamate], the IC50 in experiment [1] was determined as 29 nM; in experiment [2] it was 1090 nM.

On to `CC(C)NC(=O)O[C@H]1CC[C@@H](c2cc(Nc3ccc4c(c3F)CN(C3CCC3O)S4(=O)=O)n[nH]2)C1` (single isomer, unassigned) [Example 103, cis-3-(3-((4-fluoro-2-(2-hydroxycyclobutyl)-1,1-dioxido-2,3-dihydrobenzo[d]isothiazol-5-yl)amino)-1H-pyrazol-5-yl)cyclopentyl isopropylcarbamate], for which the results for the IC50 in experiment [1] and in experiment [2] were 3.8 nM and 350 nM, respectively.

For the compound `CC(C)NC(=O)O[C@H]1CC[C@@H](c2cc(Nc3ccc4c(c3F)C(C)NS4(=O)=O)n[nH]2)C1` (single isomer, unassigned) [Example 51a, cis-3-(3-((4-fluoro-3-methyl-1,1-dioxido-2,3-dihydrobenzo[d]isothiazol-5-yl)amino)-1H-pyrazol-5-yl)cyclopentyl isopropylcarbamate], the IC50 was found to be 2.5 nM in experiment [1] and 194 nM in experiment [2].

As to `CC(C)NC(=O)O[C@H]1CC[C@@H](c2cc(Nc3ccc4c(c3)N(C)S(=O)(=O)C4)n[nH]2)C1` (relative stereo) [Example 308, cis-3-(3-((1-methyl-2,2-dioxido-1,3-dihydrobenzo[c]isothiazol-6-yl)amino)-1H-pyrazol-5-yl)cyclopentyl isopropylcarbamate], the IC50 was found to be 2.2 nM in experiment [1] and 26 nM in experiment [2].

Regarding `O=C(NC1CCC(O)CC1)O[C@H]1CC[C@@H](c2cc(Nc3ccc4c(c3F)CNS4(=O)=O)n[nH]2)C1` (single isomer, unassigned) [Example 143, cis-3-(3-((4-fluoro-1,1-dioxido-2,3-dihydrobenzo[d]isothiazol-5-yl)amino)-1H-pyrazol-5-yl)cyclopentyl(4-hydroxycyclohexyl)carbamate], the half-maximal inhibitory concentration (IC50) was determined as 4.9 nM in experiment [1] and 242 nM in experiment [2].

As for `CC(C)NC(=O)O[C@H]1CC[C@@H](c2cc(Nc3ccc4c(c3F)CN(C3CCN(C)CC3)S4(=O)=O)n[nH]2)C1` (relative stereo) [Example 62, cis-3-(3-((4-fluoro-2-(1-methylpiperidin-4-yl)-1,1-dioxido-2,3-dihydrobenzo[d]isothiazol-5-yl)amino)-1H-pyrazol-5-yl)cyclopentyl isopropylcarbamate], the IC50 is 9.5 nM in experiment [1] and 758 nM in experiment [2].

As for `CC1NS(=O)(=O)c2ccc(Nc3cc([C@@H]4CC[C@H](OC(=O)NC5(C)CC5)C4)[nH]n3)cc21` (single isomer, unassigned) [Example 322c, cis-3-(3-((3-methyl-1,1-dioxido-2,3-dihydrobenzo[d]isothiazol-5-yl)amino)-1H-pyrazol-5-yl)cyclopentyl(1-methylcyclopropyl)carbamate], the half-maximal inhibitory concentration (IC50) was determined as 1.3 nM in experiment [1] and 29 nM in experiment [2].

With `CC(C)NC(=O)O[C@H]1CC[C@@H](c2cc(Nc3ccc4c(c3)NS(=O)(=O)N4)n[nH]2)C1` (relative stereo) [Example 320, cis-3-(3-((2,2-dioxido-1,3-dihydrobenzo[c][1,2,5]thiadiazol-5-yl)amino)-1H-pyrazol-5-yl)cyclopentyl isopropylcarbamate], the IC50 was determined as 134 nM in experiment [1] and 1760 nM in experiment [2].

Regarding `CC(C)NC(=O)O[C@H]1CC[C@@H](c2cc(Nc3ccc4c(c3)CS(=O)(=O)N4CCN3CCOCC3)n[nH]2)C1` (relative stereo) [Example 212, cis-3-(3-((1-(2-morpholinoethyl)-2,2-dioxido-1,3-dihydrobenzo[c]isothiazol-5-yl)amino)-1H-pyrazol-5-yl)cyclopentyl isopropylcarbamate], the IC50 in experiment [1] turned out to be 3.5 nM; in experiment [2], 60 nM.

As for `CN1c2ccc(Nc3cc([C@@H]4CC[C@H](OC(=O)NC5(C)COC5)C4)[nH]n3)c(F)c2CS1(=O)=O` (single isomer, unassigned) [Example 332b, cis-3-(3-((4-fluoro-1-methyl-2,2-dioxido-1,3-dihydrobenzo[c]isothiazol-5-yl)amino)-1H-pyrazol-5-yl)cyclopentyl(3-methyloxetan-3-yl)carbamate], the IC50 in experiment [1] is 3.5 nM; in experiment [2], 160 nM.

Take `CC(C)NC(=O)O[C@H]1CC[C@@H](c2cc(Nc3ccc4c(c3)CS(=O)(=O)N4C3COC3)n[nH]2)C1` (relative stereo) [Example 209, cis-3-(3-((1-(oxetan-3-yl)-2,2-dioxido-1,3-dihydrobenzo[c]isothiazol-5-yl)amino)-1H-pyrazol-5-yl)cyclopentyl isopropylcarbamate]: the IC50 was determined as 5.4 nM in experiment [1] and 37 nM in experiment [2].

For the compound `CC(C)CNC(=O)O[C@H]1CC[C@@H](c2cc(Nc3cc4c(cc3F)N(CCO)S(=O)(=O)C4)n[nH]2)C1` (relative stereo) [Example 298, cis-3-(3-((6-fluoro-1-(2-hydroxyethyl)-2,2-dioxido-1,3-dihydrobenzo[c]isothiazol-5-yl)amino)-1H-pyrazol-5-yl)cyclopentyl isobutylcarbamate], the IC50 in experiment [1] came out at 4.7 nM; in experiment [2] it was 166 nM.

As to `[2H]C([2H])([2H])N1c2ccc(Nc3cc([C@@H]4CC[C@H](OC(=O)NC5(C)CC5)C4)[nH]n3)c(F)c2CS1(=O)=O` (relative stereo) [Example 270, cis-3-(3-((4-fluoro-1-(methyl-d3)-2,2-dioxido-1,3-dihydrobenzo[c]isothiazol-5-yl)amino)-1H-pyrazol-5-yl)cyclopentyl(1-methylcyclopropyl)carbamate], the IC50 in experiment [1] turned out to be 1.7 nM; in experiment [2] it was 37 nM.

Turning to `CN1c2ccc(Nc3cc([C@@H]4CC[C@H](OC(=O)NC5CCC56CC6)C4)[nH]n3)cc2CS1(=O)=O` (relative stereo) [Example 196, cis-3-(3-((1-methyl-2,2-dioxido-1,3-dihydrobenzo[c]isothiazol-5-yl)amino)-1H-pyrazol-5-yl)cyclopentyl spiro[2.3]hexan-4-ylcarbamate], the IC50 was 4.3 nM in experiment [1] and 47 nM in experiment [2].

As for `CC(C)NC(=O)O[C@H]1CC[C@@H](c2cc(Nc3ccc4c(c3F)C(C)NS4(=O)=O)n[nH]2)C1` (single isomer, unassigned) [Example 51c, cis-3-(3-((4-fluoro-3-methyl-1,1-dioxido-2,3-dihydrobenzo[d]isothiazol-5-yl)amino)-1H-pyrazol-5-yl)cyclopentyl isopropylcarbamate], the IC50 was found to be 2.1 nM in experiment [1] and 106 nM in experiment [2].

For the compound `CC(C)NC(=O)O[C@H]1CC[C@@H](c2cc(Nc3ccc4c(c3F)CN(C[C@H](N)C(C)(C)C)S4(=O)=O)n[nH]2)C1` (relative stereo) [Example 99, cis-3-(3-((2-((R)-2-amino-3,3-dimethylbutyl)-4-fluoro-1,1-dioxido-2,3-dihydrobenzo[d]isothiazol-5-yl)amino)-1H-pyrazol-5-yl)cyclopentyl isopropylcarbamate], the IC50 was 12 nM in experiment [1] and 529 nM in experiment [2].

`CN1c2ccc(Nc3cc([C@@H]4CC[C@H](OC(=O)NC5CCC5)C4)[nH]n3)cc2CS1(=O)=O` (racemic) [Example 227, cis-3-(3-((1-methyl-2,2-dioxido-1,3-dihydrobenzo[c]isothiazol-5-yl)amino)-1H-pyrazol-5-yl)cyclopentyl cyclobutylcarbamate]: the IC50 amounted to 5 nM in experiment [1] and 249 nM in experiment [2].

`CC[C@H](C)NC(=O)O[C@H]1C[C@@H](c2cc(Nc3cc4c(cc3F)S(=O)(=O)NC4)n[nH]2)C1` [Example 410, (1s,3R)-3-(3-((6-fluoro-1,1-dioxido-2,3-dihydrobenzo[d]isothiazol-5-yl)amino)-1H-pyrazol-5-yl)cyclobutyl((S)-sec-butyl)carbamate]: the IC50 in experiment [1] came out at 27 nM; in experiment [2] it was 884 nM.
